Tests used:
[1] = biological target: alkaline phosphatase from the human placenta (PLAP) (Homo sapiens, UniProt P05187); experiment: Enzymatic dye hydrolysis (HPLC, isothermal titration calorimetry); format: biochemical
Procedure: Enzyme kinetics with ITC. We performed enzyme kinetic measurements with Di-4-ASPP phosphate as a substrate of PLAP by isothermal titration calorimetry (ITC). We used Tris-NaCl buffer (20 mM Tris, 100 mM NaCl, pH 8.1) without Zn^2+ and Mg^2+ although most alkaline phosphatases depend on these metals for maximum activity. However, divalent cations bind to lipid membranes and induce their aggregation and fusion^25. The pH-value is a compromise between optimal enzymatic activity (at pH 9.8) and compatibility with vesicles and cells. The microcalorimeter (VP-ITC, Microcal, Northampton, Mass., USA) was thermostatted to 25.0° C., with reference power set to 10 μcal/sec and a stirring speed of 310 rpm. The sample cell contained a PLAP solution of 0.19 DEA Units/ml activity and the syringe was filled with a 1 mM solution of Di-4-ASPP phosphate. The reference cell contained buffer only. Different amounts of dye were injected into the sample cell in separate experiments to cover a concentration range from 2 μM to 15 μM. To determine the heats of dilution alone, injections were carried out with pure buffer. For both hydrolysis and dilution, the baseline signal was approximated by linear or polynomial functions and subtracted from the raw signal resulting in a curve with a flat baseline. The dilution signal was subtracted from the signal of the enzymatic reaction to yield the final calorimeter tracing of enzymatic hydrolysis. The molar heat of reaction was obtained by integration. The initial velocities were determined from the average heat of reaction of the first 10 to 30 seconds after the onset of the reaction, using the mean molar heat of reaction as a proportionality constant. […]
Enzymatic dye hydrolysis. […] We evaluated the heat production per unit time that is proportional to the reaction rate, with the molar heat of reaction being the constant of proportionality^38. […] By calibration with that energy, the initial reaction velocity was evaluated.

[2] = Enzyme induced staining of liposomes; format: biochemical; settings: 100 μM lipid; 0.43 μM and 4.31 μM substrate
Procedure: Enzyme induced staining of liposomes. We studied enzymatic hydrolysis of Di-4-ASPP phosphate in the presence of large unilamellar POPC vesicles (LUVs) to observe enzyme induced staining. Tris-NaCl Buffer was used for the preparation of all solutions. To 550 μl of a 200 μM solution of POPC vesicles in a cuvette, an equal volume of Di-4-ASPP phosphate was added to yield concentrations between 0.1 μM and 10.7 μM. 10 μl of PLAP (18.6 DEA Units/ml) were added and the suspension was mixed by pipetting. The cuvette was held at 25° C. Fluorescence (excitation 488 nm, emission 600 nm) was recorded before and after addition of the enzyme with a resolution of 1 sec. Initial velocities were determined from the slope of the first 10 to 20 seconds of the fluorescence traces.
Enzyme Induced staining of liposomes. Now, we combined the two previous experiments. The dye phosphate was hydrolysed by phosphatase in the presence of lipid vesicles. The reaction was observed by the enhancement of fluorescence due to the enhanced binding of the dye alcohol to the lipid. The fluorescence intensity of a vesicle suspension (100 μM lipid) was recorded before and after the addition of the phosphatase with 0.43 μM and 4.31 μM Di-4-ASPP phosphate. […] This corresponds to the ratio of the fluorescence lipid titration data of alcohol and phosphate at 100 μM lipid.

human erythrocytes = experiment: Enzyme induced staining of red blood cells; format: cell-based; settings: 9.8 μM, PLAP added
Procedure: Enzyme induced staining of red blood cells. Human erythrocytes were prepared according to a slightly modified standard procedure^29. 4 ml of blood of MJH were sucked into a tube coated with EDTA (Vacutainer 367,861, Becton Dickinson, Meylan, France) and centrifuged for 10 min at 1600 g. The pellet (˜1 ml) was washed three times by resuspension and centrifugation for 10 min at 1600 g using 15 ml of a 300 mOsm Tris buffer (50 mM Tris, 110 mM NaCl, pH 7.4). Finally, the pellet was diluted with an equal volume of the same buffer additionally containing 1 mM CaCl2.
The staining experiments with erythrocytes were similar to those with giant vesicles. […]
Di-4-ASPP phosphate was added to human erythrocytes attached to a culture dish to a concentration of 9.8 μM. Membrane fluorescence was measured in the same setup as with giant vesicles. Fluorescence was weaker than with giant vesicles, which we attribute to fluorescence quenching by hemoglobin and the smaller size of the erythrocytes. […]
Plots of the intensity of a row of pixels cutting through the image of an erythrocyte at its maximum diameter are shown in B. The normalized maximum brightness minus the background signal versus time is shown in C. The ratio of final and initial fluorescence was F∞/F0=11-25 with an average of 15. These values are similar to the fluorescence enhancement on giant vesicles. […]

[3] = test system: phosphatase expressing cells; experiment: Destaining of cells after enzyme induced staining; format: cell-based
Procedure: FIG. 18. Destaining. Cells were incubated with Di-12P-ASPBS for 30 seconds, then the medium containing the dye precursor was removed and the cells were washed twice in buffer containing no dye. Fluorescence images were recorded with excitation filter 450/50 nm, emission filter 510 nm, dichroic mirror 505 nm. A. Brightfield image of cells and fluorescence images of cells illustrating destaining of the cell membrane by diffusion of the dye into the bulk medium. B. Time course of destaining. The maximum fluorescence intensity of the membrane is plotted vs. time.
Destaining. […] Cells were incubated with Di-12P-ASPBS for 30 seconds, then the medium containing the dye precursor was removed and the cells were washed twice in buffer containing no dye.

Chain of alkaline phosphatase from the human placenta (PLAP) (P05187 23-506): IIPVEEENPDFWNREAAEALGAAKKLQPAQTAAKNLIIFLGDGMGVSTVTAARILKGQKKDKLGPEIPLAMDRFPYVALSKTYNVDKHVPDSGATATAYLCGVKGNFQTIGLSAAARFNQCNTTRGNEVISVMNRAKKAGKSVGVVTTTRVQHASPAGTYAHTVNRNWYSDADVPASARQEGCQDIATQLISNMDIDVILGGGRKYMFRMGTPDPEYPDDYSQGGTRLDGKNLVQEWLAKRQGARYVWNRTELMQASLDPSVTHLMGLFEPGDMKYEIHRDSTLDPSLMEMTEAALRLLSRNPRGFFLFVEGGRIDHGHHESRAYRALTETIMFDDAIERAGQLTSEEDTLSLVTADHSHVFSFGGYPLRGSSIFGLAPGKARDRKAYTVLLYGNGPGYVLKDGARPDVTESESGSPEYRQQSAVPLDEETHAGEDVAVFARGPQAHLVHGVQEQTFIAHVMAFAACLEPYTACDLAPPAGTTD

Compound	acceptance as substrate by PLAP ([1]; ITC kinetics)	molar heat of hydrolysis (endothermal) ([1]; ITC, 25.0° C., Tris-NaCl pH 8.1) [kcal/mol]	conversion by soluble PLAP (HPLC analysis) ([1]; after incubation, enzyme removed by ultrafiltration)	enhancement of fluorescence intensity of vesicle suspension after addition of phosphatase [2]	ratio of final and initial fluorescence F∞/F0, average (human erythrocytes)	ratio of final and initial fluorescence F∞/F0, range (human erythrocytes)	membrane leaflet to which the dye binds [3]	fluorescence of stained membranes over time after washing ([3]; diffusion of bound dye to bulk medium)	selectivity of staining after 30 seconds incubation and washing ([3]; medium removed, washed twice)
CCCCN(CCCC)c1ccc(/C=C/c2cc[n+](CCCOP(=O)([O-])O)cc2)cc1 [Di-4-ASPP phosphate]	accepted by PLAP as a regular substrate	0.263 ± 0.048	quantitatively converted to Di-4-ASPP alcohol	about sixfold	15	11-25			
Di-12-phosphato-ASPBS [Di-12P-ASPBS]							binds almost exclusively to the extracellular leaflet	the fluorescence intensity of the stained membranes declined	selective staining of phosphatase expressing cells could be observed
